# Experimental data reported in patent publication US20100205696A1, “NOVEL HERBICIDE RESISTANCE GENE” (UNIVERSITY OF TENNESSEE RESEARCH FOUNDATION, priority 2009, published 2010).
# Key:
# PtJBMT = assay: Radiochemical methyltransferase assay (detoxification activity) with PtJBMT; format: biochemical; settings: 1 mM substrate, 3 μM 14C-SAM, 25° C., 30 min; relative to the activity of PtJBMTm3 with jasmonic acid set as 1
# Procedure: (§1) The detoxification activity of PtJBMTm3 was determined using radiochemical methyltransferase assays. The assays were performed with a 50 μL volume containing 50 mM Tris-HCl, pH 7.5, 1 mM of individual auxin mimic herbicides dissolved in water, and 3 μM ^14C—S-Adenosyl methionine (SAM) with a specific activity of 51.4 mCi/mmol (Perkin Elmer, Boston, Mass.). The assay was initiated by addition of SAM, maintained at 25° C. for 30 min, and stopped by addition of […] (150 μL). After phase separation by one min centrifugation at 14,000 g, the upper organic phase was counted using a liquid scintillation counter (Beckman Coulter, Fullerton, Calif.) as previously described (D'Auria et al., 2002). Radioactivity counts in the organic phase indicated the amount of synthesized methyl esters, which are the detoxificated products of individual auxin mimic herbicides. The relative assay activities of PtJBMT and PtJBMTm3 with auxin-based herbicides is illustrated in Table 2 (the activity of PtJBMTm3 with jasmonic acid was set as 1).
# PtJBMTm3 = assay: Radiochemical methyltransferase assay (detoxification activity) with PtJBMTm3; format: biochemical; settings: 1 mM substrate, 3 μM 14C-SAM, 25° C., 30 min; for Relative assay activity of PtJBMT M3: relative to the activity of PtJBMTm3 with jasmonic acid set as 1
# Procedure: as §1
Structure (SMILES),Relative assay activity of PtJBMT (PtJBMT),Relative assay activity of PtJBMT M3 (PtJBMTm3),"Relative assay activity of PtJBMT M3 (reference, set as 1) (PtJBMTm3; reference value set as 1)"
O=C(O)CCCc1c[nH]c2ccccc12 [IBA],0.8%,30.3%,
"O=C(O)CCCOc1ccc(Cl)cc1Cl [2,4-DB]",0.5%,38.7%,
"O=C(O)c1c(Cl)ccc(Cl)c1Cl [2,3,6 Trichloro-benzoic acid]",15.0%,75.4%,
O=C(O)c1c(Cl)ccc2cc(Cl)cnc12 [quinclorac],11.2%,91.3%,
Cc1cc(Cl)ccc1OCC(=O)O [MCPA],3.5%,70.0%,
CC(C)(Oc1ccc(Cl)cc1)C(=O)O [PCIB],8.0%,96.9%,
Cc1cc(Cl)ccc1OC(C)C(=O)O (centres unmarked) [mecoprop],12.8%,87.5%,
Cc1cc(Cl)ccc1OCCCC(=O)O [MCPB],0.1%,11.0%,
O=C(O)c1nc(Cl)ccc1Cl [clopyralid],17.1%,94.1%,
CC(Oc1ccc(Cl)cc1Cl)C(=O)O (centres unmarked) [dichlorprop],7.3%,73.0%,
Nc1c(Cl)c(Cl)nc(C(=O)O)c1Cl [picloram],3.7%,78.1%,
COc1c(Cl)ccc(Cl)c1C(=O)O [dicamba],2.3%,73.9%,
"O=C(O)COc1ccc(Cl)cc1Cl [2,4-D, 2,4-dichlorophenoxyacetic acid]",1.7%,57.5%,
O=C(O)Cc1ccccc1 [PAA],0.8%,58.3%,
O=C(O)Cc1c[nH]c2cccc(Cl)c12 [4-Cl-IAA],1.1%,33.6%,
CC/C=C\C[C@H]1C(=O)CC[C@@H]1CC(=O)O [Jasmonic acid],85.1%,,1
O=C(O)Cc1cccc2ccccc12 [NAA],7.8%,91.8%,
"O=C(O)COc1cc(Cl)c(Cl)cc1Cl [2,4,5-T]",0.4%,25.5%,
Nc1c(Cl)c(F)nc(OCC(=O)O)c1Cl [fluroxypyr],0.6%,4.2%,
